Reference: ChEMBL document CHEMBL1150084, “Two Benzylated Dihydroflavonols from Cudrania tricuspidata” (1995)
Values after ≈ are worked out from the molar mass of the structure shown.

How the values were obtained:
Assay type in all cases: functional
[1] = tested on: UO-31; assay: Cytotoxicity against human UO31 cells after 48 hrs by SRB assay; settings: UO-31, 48 h, read-out: ED50 (the source's name)
[2] = tested on: LOX IMVI; assay: Cytotoxicity against human LOXIMVI cells after 48 hrs by SRB assay; settings: read-out: ED50 (the source's name)
[3] = tested on: MOLT-4F; assay: Cytotoxicity against human MOLT4F cells after 48 hrs by SRB assay; settings: read-out: ED50 (the source's name)
[4] = Cytotoxicity against human CRL1579 cells after 48 hrs by SRB assay; settings: read-out: ED50 (the source's name)
[5] = tested on: KM12; assay: Cytotoxicity against human KM12 cells after 48 hrs by SRB assay; settings: KM12, 48 h, read-out: ED50 (the source's name)

Compound	EC50 [1] [µg/mL]	EC50 [2] [µg/mL]	EC50 [3] [µg/mL]	EC50 [4] [µg/mL]	EC50 [5] [µg/mL]
O=C1c2c(cc(O)c(Cc3ccc(O)cc3)c2O)O[C@H](c2ccc(O)cc2)[C@H]1O [GERICUDRANIN E]	7.6 (≈ 19.3 µM)	12.5 (≈ 31.7 µM)	10.7 (≈ 27.1 µM)	2.9 (≈ 7.35 µM)	11.9 (≈ 30.2 µM)
O=C1c2c(O)c(Cc3ccc(O)cc3)c(O)c(Cc3ccc(O)cc3)c2O[C@H](c2ccc(O)cc2)[C@H]1O [GERICUDRANIN D]	5.2 (≈ 10.4 µM)	16.6 (≈ 33.2 µM)	8.9 (≈ 17.8 µM)	9.5 (≈ 19 µM)	5 (≈ 9.99 µM)
COc1cccc2c1C(=O)c1c(O)c3c(c(O)c1C2=O)C[C@@](O)(C(=O)CO)C[C@@H]3O[C@H]1C[C@H](N)[C@H](O)[C@H](C)O1 [DOXORUBICIN]	0.3 (≈ 0.552 µM)	0.13 (≈ 0.239 µM)	0.02 (≈ 0.0368 µM)	0.16 (≈ 0.294 µM)	0.11 (≈ 0.202 µM)
